Among the data in patent US20230365592A1 (Agios Pharmaceuticals, Inc., priority 2022, published 2023) are AC50 values, retold here.

The target of this experiment is T1, human PAH with the R408W mutation (Homo sapiens, UniProt P00439, R408W).
T1 construct: expressed in transfected cells
T1 sequence (P00439 1-452 R408W): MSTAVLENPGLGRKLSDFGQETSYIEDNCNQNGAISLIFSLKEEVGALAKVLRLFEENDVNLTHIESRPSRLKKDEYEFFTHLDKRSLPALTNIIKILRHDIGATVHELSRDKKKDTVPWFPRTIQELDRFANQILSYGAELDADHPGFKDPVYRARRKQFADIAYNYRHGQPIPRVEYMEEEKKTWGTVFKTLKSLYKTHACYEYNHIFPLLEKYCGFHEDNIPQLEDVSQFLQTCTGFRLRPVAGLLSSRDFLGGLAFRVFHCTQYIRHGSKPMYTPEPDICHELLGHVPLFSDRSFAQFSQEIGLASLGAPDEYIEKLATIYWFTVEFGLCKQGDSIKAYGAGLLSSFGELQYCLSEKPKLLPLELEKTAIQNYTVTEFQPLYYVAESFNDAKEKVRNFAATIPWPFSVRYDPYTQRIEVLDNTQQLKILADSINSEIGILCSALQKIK
Kind of experiment: Cell Based Phenylalanine Flux Assay.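 Note: after compound treatment, cells received sepiapterin plus isotope-labelled Phenylalanine for 4 hours, then labelled Tyrosine in the medium was quantified, 10-point 2-fold dilution series run in duplicate.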 The following applies: A375 cells expressing human R408W PAH; 24 hrs compound incubation; 13C-Tyrosine by LC-MS; average where tested multiple times; read-out: AC50.
In the case of `O=C(c1nnc(-c2ncccn2)o1)N1CCc2[nH]cnc2[C@H]1c1cc2c(Cl)cccn2n1` [Example 1411, (S)-(4-(4-chloropyrazolo[1,5-a]pyridin-2-yl)-6,7-dihydro-1H-imidazo[4,5-c]pyridin-5(4H)-yl)(5-(pyrimidin-2-yl)-1,3,4-oxadiazol-2-yl)methanone], the half-maximal activity concentration (AC50) (usually the midpoint of the concentration-response curve, whichever way the signal moves) is < 500 nM. To `O=C(c1nnc(-c2ncccn2)o1)N1CCc2[nH]cnc2[C@H]1c1cc2c(C(F)F)cccn2n1` [Example 1413, (S)-(4-(4-(difluoromethyl)pyrazolo[1,5-a]pyridin-2-yl)-6,7-dihydro-1H-imidazo[4,5-c]pyridin-5(4H)-yl)(5-(pyrimidin-2-yl)-1,3,4-oxadiazol-2-yl)methanone] belongs 500 to 1000 nM; to `O=C(c1cnn2cc(-c3ccccn3)ccc12)N1CCc2[nH]cnc2[C@@H]1c1cc2ccccn2n1` [Example 1417, (R)-(4-(pyrazolo[1,5-a]pyridin-2-yl)-6,7-dihydro-1H-imidazo[4,5-c]pyridin-5(4H)-yl)(6-(pyridin-2-yl)pyrazolo[1,5-a]pyridin-3-yl)methanone], 1000 to 5000 nM.

On to `CC(C)(C)c1nnc(C(=O)N2CCc3[nH]cnc3[C@@H]2c2cc3cccc(C(F)F)n3n2)o1` [Example 1418, (R)-(5-(tert-butyl)-1,3,4-oxadiazol-2-yl)(4-(7-(difluoromethyl)pyrazolo[1,5-a]pyridin-2-yl)-6,7-dihydro-1H-imidazo[4,5-c]pyridin-5(4H)-yl)methanone], for which the half-maximal activity concentration (AC50) is 1000 to 5000 nM. Turning to `O=C(c1nnc(-c2ccccn2)o1)N1CCc2[nH]cnc2[C@H]1c1cc2cccc(C(F)F)n2n1` [Example 1421, (S)-(4-(7-(difluoromethyl)pyrazolo[1,5-a]pyridin-2-yl)-6,7-dihydro-1H-imidazo[4,5-c]pyridin-5(4H)-yl)(5-(pyridin-2-yl)-1,3,4-oxadiazol-2-yl)methanone], the half-maximal activity concentration (AC50) was < 500 nM. To `O=C(c1nnc(-c2cccnc2)o1)N1CCc2[nH]cnc2[C@H]1c1cc2c(C(F)F)cccn2n1` [Example 1422, (S)-(4-(4-(difluoromethyl)pyrazolo[1,5-a]pyridin-2-yl)-6,7-dihydro-1H-imidazo[4,5-c]pyridin-5(4H)-yl)(5-(pyridin-3-yl)-1,3,4-oxadiazol-2-yl)methanone] belongs < 500 nM; to `COc1ccc(-c2nnc(C(=O)N3CCc4[nH]cnc4[C@@H]3c3cc4c(C(F)F)cccn4n3)o2)nc1` [Example 1425, (R)-(4-(4-(difluoromethyl)pyrazolo[1,5-a]pyridin-2-yl)-6,7-dihydro-1H-imidazo[4,5-c]pyridin-5(4H)-yl)(5-(5-methoxypyridin-2-yl)-1,3,4-oxadiazol-2-yl)methanone], 1000 to 5000 nM; to `O=C(c1nnc(-c2ncccc2F)o1)N1CCc2[nH]cnc2[C@H]1c1cc2c(C(F)F)cccn2n1` [Example 1426, (S)-(4-(4-(difluoromethyl)pyrazolo[1,5-a]pyridin-2-yl)-6,7-dihydro-1H-imidazo[4,5-c]pyridin-5(4H)-yl)(5-(3-fluoropyridin-2-yl)-1,3,4-oxadiazol-2-yl)methanone], < 500 nM. To `O=C(c1nnc(-c2ncccc2F)o1)N1CCc2[nH]cnc2[C@@H]1c1cc2c(C(F)F)cccn2n1` [Example 1427, (R)-(4-(4-(difluoromethyl)pyrazolo[1,5-a]pyridin-2-yl)-6,7-dihydro-1H-imidazo[4,5-c]pyridin-5(4H)-yl)(5-(3-fluoropyridin-2-yl)-1,3,4-oxadiazol-2-yl)methanone] belongs > 5000 nM; to `Cc1cccc(-c2nnc(C(=O)N3CCc4[nH]cnc4[C@@H]3c3cc4c(Cl)cccn4n3)o2)n1` [Example 1430, (R)-(4-(4-chloropyrazolo[1,5-a]pyridin-2-yl)-6,7-dihydro-1H-imidazo[4,5-c]pyridin-5(4H)-yl)(5-(6-methylpyridin-2-yl)-1,3,4-oxadiazol-2-yl)methanone], > 5000 nM. To `Cc1cccc(-c2nnc(C(=O)N3CCc4[nH]cnc4[C@@H]3c3cc4c(C(F)(F)F)cccn4n3)o2)n1` [Example 1432, (R)-(5-(6-methylpyridin-2-yl)-1,3,4-oxadiazol-2-yl)(4-(4-(trifluoromethyl)pyrazolo[1,5-a]pyridin-2-yl)-6,7-dihydro-1H-imidazo[4,5-c]pyridin-5(4H)-yl)methanone] belongs 1000 to 5000 nM; to `Cn1ccc(-c2nnc(C(=O)N3CCc4[nH]cnc4[C@H]3c3cc4cccc(C(F)F)n4n3)o2)n1` [Example 1438, (S)-(4-(7-(difluoromethyl)pyrazolo[1,5-a]pyridin-2-yl)-6,7-dihydro-1H-imidazo[4,5-c]pyridin-5(4H)-yl)(5-(1-methyl-1H-pyrazol-3-yl)-1,3,4-oxadiazol-2-yl)methanone], 500 to 1000 nM. On to `Cn1ccc(-c2nnc(C(=O)N3CCc4[nH]cnc4[C@@H]3c3cc4cccc(C(F)F)n4n3)o2)n1` [Example 1439, (R)-(4-(7-(difluoromethyl)pyrazolo[1,5-a]pyridin-2-yl)-6,7-dihydro-1H-imidazo[4,5-c]pyridin-5(4H)-yl)(5-(1-methyl-1H-pyrazol-3-yl)-1,3,4-oxadiazol-2-yl)methanone], for which the AC50 is > 5000 nM.

`O=C(c1nnc(-c2cnn(C(F)F)c2)o1)N1CCc2[nH]cnc2[C@H]1c1cc2cccc(C(F)F)n2n1` [Example 1440, (S)-(5-(1-(difluoromethyl)-1H-pyrazol-4-yl)-1,3,4-oxadiazol-2-yl)(4-(7-(difluoromethyl)pyrazolo[1,5-a]pyridin-2-yl)-6,7-dihydro-1H-imidazo[4,5-c]pyridin-5(4H)-yl)methanone]: the concentration at half-maximal activity (AC50) fell in the range of 500 to 1000 nM. On to `O=C(c1nnc(-c2cnn(C(F)F)c2)o1)N1CCc2[nH]cnc2[C@@H]1c1cc2cccc(C(F)F)n2n1` [Example 1441, (R)-(5-(1-(difluoromethyl)-1H-pyrazol-4-yl)-1,3,4-oxadiazol-2-yl)(4-(7-(difluoromethyl)pyrazolo[1,5-a]pyridin-2-yl)-6,7-dihydro-1H-imidazo[4,5-c]pyridin-5(4H)-yl)methanone], for which the concentration at half-maximal activity (AC50) is > 5000 nM. To `O=C(c1nnc(-c2ccn(C(F)F)n2)o1)N1CCc2[nH]cnc2[C@H]1c1cc2cccc(C(F)F)n2n1` [Example 1442, (S)-(5-(1-(difluoromethyl)-1H-pyrazol-3-yl)-1,3,4-oxadiazol-2-yl)(4-(7-(difluoromethyl)pyrazolo[1,5-a]pyridin-2-yl)-6,7-dihydro-1H-imidazo[4,5-c]pyridin-5(4H)-yl)methanone] belongs < 500 nM; to `O=C(c1nnc(-c2cnn(C(F)(F)F)c2)o1)N1CCc2[nH]cnc2[C@H]1c1cc2cccc(Cl)n2n1` [Example 1444, (S)-(4-(7-chloropyrazolo[1,5-a]pyridin-2-yl)-6,7-dihydro-1H-imidazo[4,5-c]pyridin-5(4H)-yl)(5-(1-(trifluoromethyl)–1H-pyrazol-4-yl)-1,3,4-oxadiazol-2-yl)methanone], < 500 nM. To `Cc1cccc2cc([C@H]3c4nc[nH]c4CCN3C(=O)c3nnc(-c4cnn(C(F)(F)F)c4)o3)nn12` [Example 1447, (R)-(4-(7-methylpyrazolo[1,5-a]pyridin-2-yl)-6,7-dihydro-1H-imidazo[4,5-c]pyridin-5(4H)-yl)(5-(1-(trifluoromethyl)-1H-pyrazol-4-yl)-1,3,4-oxadiazol-2-yl)methanone] belongs > 5000 nM.

In the case of `CC(C)c1nnc(C(=O)N2CCc3[nH]cnc3[C@H]2c2cc3ccccn3n2)o1` [Example 1448, (S)-(5-isopropyl-1,3,4-oxadiazol-2-yl)(4-(pyrazolo[1,5-a]pyridin-2-yl)-6,7-dihydro-1H-imidazo[4,5-c]pyridin-5(4H)-yl)methanone], the concentration at half-maximal activity (AC50) lay within 500 to 1000 nM.

As to `CC(C)c1nnc(C(=O)N2CCc3[nH]cnc3[C@@H]2c2cc3ccccn3n2)o1` [Example 1449, (R)-(5-isopropyl-1,3,4-oxadiazol-2-yl)(4-(pyrazolo(1,5-a]pyridin-2-yl)-6,7-dihydro-1H-imidazo[4,5-c]pyridin-5(4H)-yl)methanone], the AC50 lay within 1000 to 5000 nM. With `Cc1cccn2nc([C@@H]3c4nc[nH]c4CCN3C(=O)c3nnc(C(C)C)o3)cc12` [Example 1450, (S)-(5-isopropyl-1,3,4-oxadiazol-2-yl)(4-(4-methylpyrazolo[1,5-a]pyridin-2-yl)-6,7-dihydro-1H-imidazo[4,5-c]pyridin-5(4H)-yl)methanone], the half-maximal activity concentration (AC50) was < 500 nM. To `Cc1cccn2nc([C@H]3c4nc[nH]c4CCN3C(=O)c3nnc(C(C)C)o3)cc12` [Example 1451, (R)-(5-isopropyl-1,3,4-oxadiazol-2-yl)(4-(4-methylpyrazolo[1,5-a]pyridin-2-yl)-6,7-dihydro-1H-imidazo[4,5-c]pyridin-5(4H)-yl)methanone] belongs > 5000 nM; to `CC(C)c1nnc(C(=O)N2CCc3[nH]cnc3[C@H]2c2cc3c(F)cccn3n2)o1` [Example 1452, (S)-(4-(4-fluoropyrazolo[1,5-a]pyridin-2-yl)-6,7-dihydro-1H-imidazo[4,5-c]pyridin-5(4H)-yl)(5-isopropyl-1,3,4-oxadiazol-2-yl)methanone], < 500 nM; to `Clc1cccn2nc([C@H]3c4nc[nH]c4CCN3c3nnc(C4CC4)o3)cc12` [Example 1454, (R)-2-(4-(4-chloropyrazolo[1,5-a]pyridin-2-yl)-1,4,6,7-tetrahydro-5H-imidazo[4,5-c]pyridin-5-yl)-5-cyclopropyl-1,3,4-oxadiazole], > 5000 nM.
